From PMC11271967, “An inhibitory mechanism of AasS, an exogenous fatty acid scavenger: Implications for re-sensitization of FAS II antimicrobials” (PLOS Pathogens, 2024)

Assays:
[1] = system: AasS-expressing E. coli ΔbioC strain; experiment: AasS-based bypass of biotin synthesis, bacterial viability on M9 agar; format: cell-based, Escherichia coli; settings: M9 agar with E-C7 as sole carbon source; 0, 50, 100, 500 μM tested
Text: Fig 4 Integrated evidence for the inhibition of AasS action with E-C7 fatty acid by C10-AMS compound. A. Schematic diagram of AasS-catalyzed ligation of E-C7 with holo-ACP recipient to produce E-C7-ACP. […] A representative photograph of three independent trials was given. C. Relatively-quantitative analysis (for the inhibitory efficacy of C10-AMS on AasS-catalyzed E-C7-ACP production. As for AasS reaction (panel B), unlike the three components that are at constant levels, namely (i) AasS (31.25 nM), (ii) E-C7 (600 μM), and (iii) ACP (3 μg), C10-AMS inhibitor was supplemented at varied ratio in relative to the AasS enzyme (ranging from 0:1, 25:1, 50:1, 100:1, 200:1, 300:1, 400:1, to 500:1). The ImageJ software was applied to measure the relative percentage (%) of E-C7 fatty acylation in each AasS reaction. The resultant graphs were plotted from three independent experiments, in which the output was expressed as means ± SD (standard deviations). D. Schematic diagram for C10-AMS inhibition of AasS-based bypass of biotin requirement by the E. coli ΔbioC biotin auxotroph on the non-permissive condition. […] Log-phase cultures in a series of 10-fold dilution (shown in panel on right hand), were spotted on the x-gal-containing M9 agar plates supplemented with C10-AMS inhibitor at varied levels (0, 50, 100, to 500 μM). The addition of x-gal substrate enabled the occurrence of blue colonies for better photographing, and viable colonies were highlighted with yellow arrows.
Given that AasS ligates E-C7 fatty acid with holo-ACP, giving E-C7-ACP, an alternative precursor for bacterial biotin synthesis, plasmid-borne aasS expression in ΔbioC biotin auxotroph strain is assumed to overcome the requirement of the primary BioC step [58, 83]. Apart from its WT, three single mutants of AasS (D411A, R426A, and K432A) were examined in vivo, of which the compromised activity is presumably proportional to the varied viability of the ΔbioC reporter strains on the non-permissive M9 growth condition. To test its inhibitory effect, the C10-AMS inhibitor in a series of dilution was supplemented. […]

AasS [2] = biological target: T1, AasS (Vibrio harveyi, UniProt Q00IB3); experiment: Michaelis-Menten curves of AasS reaction with C10-AMS supplemented; format: biochemical
Method: To ascertain this hypothesis, we set up three combinations of AasS reaction with the varied order of C10-AMS inhibitor added in relative to C10 substrate. Namely, these included (i) addition of C10-AMS after C10 pre-incubation (S1B Fig), (ii) simultaneous addition of C10-AMS and C10 (S1C Fig), and (iii) supplementation of C10-AMS prior to C10 (S1D Fig). […] Next, we generated Michaelis-Menten curves of AasS enzyme to evaluate the inhibitory pattern of C10-AMS against ATP cofactor and C10 acyl substrate (S2 Fig).
Supplementary file ppat.1012376.s004.tif: S2 Fig Use of Michaelis-Menten curves to evaluate inhibition mode of AasS by the C10-AMS molecule. Michaelis-Menten curves of AasS reaction for the ATP cofactor (A) and C10 acyl substrate (C), on the condition of C10-AMS inhibitor supplemented at varied concentrations. C10-AMS was added at different level (ranging from 0, 125, 250, to 500 nM). Based on the dogma of Michaelis-Menten equation, a number of crosspoints of two vertically-intersecting dashed-lines (indicated with arrows) were given to determine the values of Km and Vmax. Of note, the coordinate (x,y) of the resultant crosspoint denotes the number (Km, Vmax /2). The values of Km and Vmax for AasS inhibited by C10-AMS in relative to ATP cofactor (B) and C10 substrate (D). […] Designations: Km, Michaelis constant; Vmax, Maximum velocity. (TIF)

AasS [3] = biological target: T1, AasS; experiment: Isothermal titration calorimetry (ITC), wild-type AasS; format: binding; settings: AasS ~40 μM saturated with ATP 120 μM
Method: The assays of Isothermal titration calorimetry (ITC) were conducted to address the stoichiometry of AasS binding to its C10-AMS inhibitor and C10-AMP intermediate. Since both malic acid and pimelic acid are not substrates for AasS, the two dicarboxylic acids were assumed as negative controls in our ITC analysis. Using a micro-calorimeter (MicroCal PEAQ-ITC) as recently described for E-C7 with little change, totally 18 titrations (2 μl each at an internal of 2.5 min) proceeded in the cell at room temperature. Prior to the titration, AasS protein (~40 μM) was saturated with its ATP cofactor (120 μM) in the cell, and C10-AMS inhibitor (or C10) was kept at 600 μM in the syringe. The titration buffer was composed of 150 mM NaCl, 25 mM Tris-HCl (pH8.0), 2 mM DTT, and 3 mM MgCl2. One set of site model by the MicroCal PEAQ-ITC software enabled plotting the titration curves. Next, the stoichiometry (N) and dissociation constant (Kd) were calculated. It was given as an average ± standard deviation (SD) from three independent trials.

[4] = increasing C10-AMS while varying ATP

T1 sequence (Q00IB3 entry or part of it): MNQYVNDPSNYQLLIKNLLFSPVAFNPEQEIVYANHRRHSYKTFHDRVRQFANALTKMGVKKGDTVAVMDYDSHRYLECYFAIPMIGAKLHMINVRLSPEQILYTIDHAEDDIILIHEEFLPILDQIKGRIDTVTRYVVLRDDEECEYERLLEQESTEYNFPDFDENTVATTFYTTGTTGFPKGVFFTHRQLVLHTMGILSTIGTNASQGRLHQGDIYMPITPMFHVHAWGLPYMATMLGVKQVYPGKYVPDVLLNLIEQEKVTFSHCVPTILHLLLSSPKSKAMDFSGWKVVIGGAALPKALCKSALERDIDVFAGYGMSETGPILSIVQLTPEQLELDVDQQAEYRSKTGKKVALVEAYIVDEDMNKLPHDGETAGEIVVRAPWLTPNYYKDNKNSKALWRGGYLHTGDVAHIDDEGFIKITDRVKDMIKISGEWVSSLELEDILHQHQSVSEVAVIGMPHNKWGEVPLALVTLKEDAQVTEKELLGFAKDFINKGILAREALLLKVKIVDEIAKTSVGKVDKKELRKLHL

CCCCCCCCCC(=O)NS(=O)(=O)OC[C@H]1O[C@@H](n2cnc3c(N)ncnc32)[C@H](O)[C@@H]1O [C10-AMS]
C10-AMS level that markedly impaired AasS-based bypass of biotin synthesis [1]: over 100 μM | AasS reaction rate, Michaelis-Menten curve for ATP, Average (AasS [2]; 125 nM C10-AMS, ATP 0.125 (unit not given)): 0.1701 | AasS reaction rate, Michaelis-Menten curve for ATP, Average (AasS [2]; 125 nM C10-AMS, ATP 0.25): 0.2829 | AasS reaction rate, Michaelis-Menten curve for ATP, Average (AasS [2]; 125 nM C10-AMS, ATP 0.5): 0.452 | AasS reaction rate, Michaelis-Menten curve for ATP, Average (AasS [2]; 125 nM C10-AMS, ATP 1): 0.6373 | AasS reaction rate, Michaelis-Menten curve for ATP, Average (AasS [2]; 125 nM C10-AMS, ATP 2): 0.8268 | AasS reaction rate, Michaelis-Menten curve for C10 acyl substrate, Average (AasS [2]; 125 nM C10-AMS, C10 5 (unit not given)): 0.6857 | AasS reaction rate, Michaelis-Menten curve for C10 acyl substrate, Average (AasS [2]; 125 nM C10-AMS, C10 10): 0.7781 | AasS reaction rate, Michaelis-Menten curve for C10 acyl substrate, Average (AasS [2]; 125 nM C10-AMS, C10 20): 0.8956 | AasS reaction rate, Michaelis-Menten curve for C10 acyl substrate, Average (AasS [2]; 125 nM C10-AMS, C10 40): 0.924 | AasS reaction rate, Michaelis-Menten curve for ATP, Average (AasS [2]; 250 nM C10-AMS, ATP 0.125 (unit not given)): 0.1042 | AasS reaction rate, Michaelis-Menten curve for ATP, Average (AasS [2]; 250 nM C10-AMS, ATP 0.25): 0.1505 | AasS reaction rate, Michaelis-Menten curve for ATP, Average (AasS [2]; 250 nM C10-AMS, ATP 0.5): 0.2695 | AasS reaction rate, Michaelis-Menten curve for ATP, Average (AasS [2]; 250 nM C10-AMS, ATP 1): 0.5022 | AasS reaction rate, Michaelis-Menten curve for ATP, Average (AasS [2]; 250 nM C10-AMS, ATP 2): 0.6244 | AasS reaction rate, Michaelis-Menten curve for C10 acyl substrate, Average (AasS [2]; 250 nM C10-AMS, C10 5 (unit not given)): 0.3359 | AasS reaction rate, Michaelis-Menten curve for C10 acyl substrate, Average (AasS [2]; 250 nM C10-AMS, C10 10): 0.4164 | AasS reaction rate, Michaelis-Menten curve for C10 acyl substrate, Average (AasS [2]; 250 nM C10-AMS, C10 20): 0.4772 | AasS reaction rate, Michaelis-Menten curve for C10 acyl substrate, Average (AasS [2]; 250 nM C10-AMS, C10 40): 0.4877 | AasS reaction rate, Michaelis-Menten curve for ATP, Average (AasS [2]; 500 nM C10-AMS, ATP 0.125 (unit not given)): 0.0721 | AasS reaction rate, Michaelis-Menten curve for ATP, Average (AasS [2]; 500 nM C10-AMS, ATP 0.25): 0.08914 | AasS reaction rate, Michaelis-Menten curve for ATP, Average (AasS [2]; 500 nM C10-AMS, ATP 0.5): 0.1634 | AasS reaction rate, Michaelis-Menten curve for ATP, Average (AasS [2]; 500 nM C10-AMS, ATP 1): 0.2728 | AasS reaction rate, Michaelis-Menten curve for ATP, Average (AasS [2]; 500 nM C10-AMS, ATP 2): 0.3695 | AasS reaction rate, Michaelis-Menten curve for C10 acyl substrate, Average (AasS [2]; 500 nM C10-AMS, C10 5 (unit not given)): 0.2278 | AasS reaction rate, Michaelis-Menten curve for C10 acyl substrate, Average (AasS [2]; 500 nM C10-AMS, C10 10): 0.2903 | AasS reaction rate, Michaelis-Menten curve for C10 acyl substrate, Average (AasS [2]; 500 nM C10-AMS, C10 20): 0.3259 | AasS reaction rate, Michaelis-Menten curve for C10 acyl substrate, Average (AasS [2]; 500 nM C10-AMS, C10 40): 0.3858 | change of Michaelis constant (Km) of AasS (AasS [2]; [4]): increase | change of maximum velocity (Vmax) of AasS (AasS [2]; [4]): declined | mode of inhibition against ATP ligand (AasS [2]; varying ATP, C10-AMS 0-500 nM): mixed inhibition | inhibitory pattern for the C10 acyl substrate (AasS [2]; varying C10, C10-AMS 0-500 nM): mixed type of inhibition | stoichiometry (n) (AasS [3]): 0.97±0.16 | Kd (AasS [3]; ligand 600 μM in syringe, room temperature, read-out: dissociation constant (Kd)): 14.1 ± 3.82 nM
